Patent US20070244056A1 (priority 2004, published 2007)

How the values were obtained:
[1] = test system: Transgenic mice overexpressing human Cu/Zn-SOD G93A mutations; test: Experimental model for amyotrophic lateral sclerosis (SOD1 G93A transgenic mice); format: in vivo; conditions: glatiramer acetate at both dosages; riluzole 30 mg/kg per day; during the course of treatment
Procedure: Transgenic mice overexpressing human Cu/Zn-SOD G93A mutations ((B6SJL-TgN (SOD1-G93A) 1 Gur) and non-transgenic B6/SJL mice are purchased from Jackson Laboratories (Bar Harbor, Me., USA). The second generation of G1H mice are used.
A group of 15 mice serve as controls.
The drugs are administered in drinking water starting at 60 days of age.
The clinical condition of the mice is monitored daily starting at 40 days. The onset of clinical signs is scored by examining the mice for tremors and/or shaking of the limbs, the position of one or both hind limbs (hanging rather than splaying out) when the mice are suspended in the air by their tail. The age of clinical onset was determined by the age (days) at which loss of splay or tremors of hind limbs is observed. The loss of righting reflex determines the end stage of the disease. The mice are sacrificed if they could not right themselves within 30 seconds when placed on either side on a flat surface.
Mice are observed daily (including weekends) and weighed weekly. Motor performance is assessed from 40 days of age using the rotarod apparatus to measure the night activity of the mice from 8 p.m.-8 a.m.
Mice were perfused transcardially with 4% paraformaldehyde/0.9% NaCl solution, brains and whole spinal cord were dissected out, frozen in liquid nitrogen and cut in transverse sections of 20 μm on a sliding microtome. […]

[2] = test system: human patients afflicted with an unspecified form of multiple sclerosis; conditions: administered alone; data of WO 00/74676; cited from earlier work
multiple sclerosis (MS) = conditions: daily subcutaneous injections, 20 mg/injection; cited from earlier work

| Compound | running wheel activity (motor activity) [1] | EDSS score [2] | accumulation of hypointense lesions [2] | appearance of "black holes" (multiple sclerosis (MS)) | appearance of new lesions by magnetic resonance imaging (MRI) (multiple sclerosis (MS)) | progression of disability (multiple sclerosis (MS)) | relapse rates (multiple sclerosis (MS)) |
| --- | --- | --- | --- | --- | --- | --- | --- |
| Nc1nc2ccc(OC(F)(F)F)cc2s1 [riluzole, 2-amino-6-trifluoromethoxy benzothiazole] | more active during the course of treatment and maintain their motor activity longer than controls | No effect | showed a trend toward reduction |  |  |  |  |
| L-glutamic acid polymer with L-alanine, L-lysine and L-tyrosine, acetate (salt) [glatiramer acetate] | more active during the course of treatment and maintain their motor activity longer than controls |  |  | reduce | reduce | reduce | reduce |
